As usually defined, the Kd is the concentration at which binding is half-saturated.

The record followed here is US20260373266A1, “PROTEIN DEGRADERS AND USES THEREOF” (KYMERA THERAPEUTICS, INC., priority 2022, published 2026).

The target in the assay is T1, DCAF1 WD40 domain (residues 1077-1390) (Homo sapiens, UniProt Q9Y4B6).
T1 construct: DCAF1 WD40 domain (residues 1077-1390)
As to the kind of experiment: DCAF1 binding assay by SPR (Biacore 8K+), DCAF1-3 KD. The conditions noted are these: 25 °C, read-out: DCAF1-3 SPR (KD).

T1 sequence (Q9Y4B6 1077-1390): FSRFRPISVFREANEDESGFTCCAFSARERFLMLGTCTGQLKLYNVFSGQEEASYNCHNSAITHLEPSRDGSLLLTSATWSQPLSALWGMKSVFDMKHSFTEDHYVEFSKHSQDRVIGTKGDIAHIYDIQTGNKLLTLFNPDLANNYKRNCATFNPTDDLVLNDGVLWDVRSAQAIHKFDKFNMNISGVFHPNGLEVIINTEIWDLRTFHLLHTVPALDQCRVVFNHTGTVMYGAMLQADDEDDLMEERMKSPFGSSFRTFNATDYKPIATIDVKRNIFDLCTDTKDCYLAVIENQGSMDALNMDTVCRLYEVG

For `Oc1c(CN2CCCCC2)cccc1[C@H]1CCCN(c2cccc(F)c2)C1` [I-731], the Kd was more than 200 µM.
The same measure for `C=CC(=O)n1ccc(-c2n[nH]cc2C(=O)N[C@@H](CC(N)=O)c2cccc(Cl)c2)n1` [I-468]: more than 200 µM.
The same measure for `c1ccc2cc(N3CCC[C@@H](Nc4nccc(N5CCOCC5)n4)C3)ncc2c1` [I-47]: 100 to 200 µM; for `NC(=O)C[C@H](NC(=O)c1ccc(C#Cc2ccccc2)cc1)c1cccc(Cl)c1` [I-438]: more than 200 µM; for `CCn1cc(C(=O)N[C@@H](CC(N)=O)c2cccc(Cl)c2)c(-c2c(F)ccc(F)c2C)c1C#N` [I-974]: less than 10 µM.
The same measure for `NC(=O)Cc1ccc(N2CCC[C@@H](Nc3cc(N4CCOCC4)ccn3)C2)cc1` [I-863]: more than 200 µM.
As to `Cc1cccc(N2CCC[C@@H](Nc3cc(N4CCOCC4)ncn3)C2)c1` [I-5], the Kd is more than 200 µM.
To `COCCN1CCC(c2ccnc(N[C@@H]3CCCN(c4cccc(F)c4)C3)c2)CC1` [I-99] belongs 10 to 100 µM.
To `NCCNc1ccc(C2CCCCC2)cc1N[C@@H]1CCCN(c2cccc(F)c2)C1` [I-979] belongs 10 to 100 µM; to `NC(=O)C[C@H](NC(=O)c1cn[nH]c1-c1ccccc1F)c1cccc(O)c1` [I-129], more than 200 µM; to `CN1CCC(n2cc(N3CCC[C@@H](Nc4cc(N5CCOCC5)ccn4)C3)cn2)CC1` [I-419], more than 200 µM.
Take `Fc1cccc(N2CCC[C@@H](Nc3cc(N4CCOCC4)ncc3Cl)C2)c1` [I-406]: the Kd is more than 200 µM.
Take `CCc1cccc([C@@H](CC(N)=O)NC(=O)c2cn[nH]c2-c2ccccc2F)c1` [I-639]: the Kd lay within 100 to 200 µM.
The same measure for `NC(=O)[C@@H]1CCN(C(=O)c2c[nH]nc2-c2ccccc2F)[C@@H]1c1cccc(Cl)c1` [I-204]: more than 200 µM; for `c1cc(N2CCC[C@@H](Nc3cc(N4CCOCC4)ncn3)C2)ccn1` [I-6]: more than 200 µM.
To `NC(=O)C[C@H](NC(=O)c1cn[nH]c1-c1ccccc1F)c1cccnc1` [I-131] belongs more than 200 µM; to `Fc1cccc(N2CCC[C@@H](Nc3cc([C@H]4CCCCO4)ccn3)C2)c1` [I-95], more than 200 µM.
To `NC(=O)C[C@H](NC(=O)c1c[nH]c(C(=O)c2ccccc2)c1-c1c(F)c(F)cc(F)c1F)c1cccc(Cl)c1` [I-949] belongs less than 10 µM; to `O[C@H]1CCCN(c2ccnc(N3CC[C@@H]4[C@H]3CCCN4c3cccc(F)c3)c2)C1` [I-800], less than 10 µM.
With `COCCOCCOCCC(c1cc(N2CC3CCC(C3)C2)ccn1)[C@@H]1CCCN(c2cccc(F)c2)C1` (stereo partly drawn) [I-615], the Kd was less than 10 µM.
To `CC(C)c1cccc(-c2[nH]ncc2C(=O)N[C@@H](CC(N)=O)c2cccc(Cl)c2)c1F` [I-563] belongs 10 to 100 µM.
As to `CCN(c1nccc(N2CCOCC2)n1)[C@@H]1CCCN(c2cccc(F)c2)C1` [I-42], the Kd was more than 200 µM.
To `NCCOCCOCCOCCOCCOCCOCCC1CCN(c2ccnc(N3CC[C@@H]4[C@H]3CCCN4c3cccc(F)c3)c2)CC1` [I-661] belongs less than 10 µM.
To `NC(=O)C[C@](CC(=O)O)(NC(=O)c1c[nH]nc1-c1ccccc1F)c1cccc(Cl)c1` [I-295] belongs more than 200 µM.
The same measure for `Fc1cccc(N2C3CC[C@H]2CC[C@H]3Nc2cc(N3CCOCC3)ccn2)c1` (stereo in doubt) [I-80]: more than 200 µM; for `Cc1cccc(F)c1-c1[nH]ncc1C(=O)N[C@@H](CC(N)=O)c1cc(F)cc(Cl)c1` [I-748]: 10 to 100 µM; for `Oc1cnc(N[C@@H]2CCCN(c3cccc(F)c3)C2)cc1N1CCOCC1` [I-409]: more than 200 µM.
For the molecule `O=C(N[C@@H](c1cnoc1)c1cccc(Cl)c1)c1c[nH]nc1-c1ccccc1F` [I-233], the Kd is more than 200 µM.
To `N#Cc1cccc([C@H](CC(N)=O)NC(=O)c2c[nH]nc2-c2ccccc2F)c1` [I-117] belongs 10 to 100 µM; to `O=C(c1cc(N2CCCCC2)ccn1)[C@H]1CCCN(c2cccc(F)c2)C1` [I-613], 10 to 100 µM; to `COc1ccc(-c2[nH]ncc2C(=O)NC(C)C(=O)Nc2ccccc2)cc1` (stereo not drawn) [I-838], more than 200 µM.
The same measure for `c1cc(N2CCC[C@@H](Nc3nccc(N4CCOCC4)n3)C2)c2cnccc2c1` [I-31]: more than 200 µM; for `C=CC(=O)N[C@H]1CC[C@H](c2n[nH]cc2C(=O)N[C@@H](CC(N)=O)c2cccc(Cl)c2)CC1` [I-482]: more than 200 µM; for `NC(=O)C[C@H](NC(=O)c1c[nH]nc1-c1c(F)cccc1F)c1cccc(Cl)c1` [I-207]: more than 200 µM.
The same measure for `Cc1c(F)ccc(F)c1-c1c(C(=O)N[C@@H](CC(N)=O)c2cccc(Cl)c2)cn(C)c1C(=O)c1ccc(OCCOCCOCCOCCOCCOCCN)cc1` [I-1018]: less than 10 µM; for `Cc1sc2c(c1C)C(c1ccc(Cl)cc1)=N[C@@H](CC(=O)NCCOCCOCCOCCOCCCc1ccc(C(=O)c3c(-c4c(F)ccc(F)c4C)c(C(=O)N[C@@H](CS(C)(=O)=O)c4cccc(Cl)c4)cn3C)cc1)c1nnc(C)n1-2` [I-915]: less than 10 µM; for `c1ccc2c(N3CCC[C@@H](Nc4cncc(N5CCOCC5)c4)C3)cncc2c1` [I-365]: less than 10 µM.
In the case of `N[C@@H](c1cncc(N2CCC[C@@H](Nc3cc(N4CCOCC4)ccn3)C2)c1)C1CC1` [I-485], the Kd is more than 200 µM.
To `Fc1cccc([C@H]2CCC[C@@H](Nc3cc(N4CCOCC4)ccn3)C2)c1` [I-180] belongs more than 200 µM; to `Cc1cccc(C(CC(N)=O)NC(=O)c2cn[nH]c2-c2ccccc2F)c1` (stereo not drawn) [I-331], more than 200 µM.
To `O=CNc1ccc(N2CCC[C@@H]3[C@H]2CCN3c2cc(N3CCCCC3)ccn2)cc1F` [I-761] belongs more than 200 µM.
The same measure for `CCCN1CCN(c2cc(N[C@@H]3CCCN(c4cccc(F)c4)C3)ncn2)CC1` [I-376]: more than 200 µM.
Regarding `NC(=O)C[C@H](NC(=O)c1cnn(Cc2ccncn2)c1-c1ccccc1F)c1cccc(Cl)c1` [I-154], the Kd was more than 200 µM.
As to `C=CC(=O)NCc1n[nH]cc1C(=O)N[C@@H](CC(N)=O)c1cccc(Cl)c1` [I-467], the Kd was more than 200 µM.
The same measure for `c1cc(N2CCC[C@@H](Nc3nccc(N4CCOCC4)n3)C2)c2cccnc2c1` [I-53]: 100 to 200 µM.
The same measure for `Cc1cc(F)c(-c2[nH]ncc2C(=O)N[C@@H](CC(N)=O)c2cccc(Cl)c2)c(F)c1` [I-549]: less than 10 µM.
The same measure for `NC(=O)C[C@H](NC(=O)c1[nH]nc(Nc2ccncn2)c1-c1ccccc1F)c1cccc(Cl)c1` [I-168]: more than 200 µM; for `C[C@@H]1CCCCC1c1[nH]ncc1C(=O)N[C@@H](CC(N)=O)c1cccc(Cl)c1` (stereo partly drawn) [I-724]: less than 10 µM.
Regarding `Fc1cccc(N2CCC[C@@H](Cc3cc(N4CCOCC4)[nH]n3)C2)c1` [I-631], the dissociation constant Kd is more than 200 µM.
To `C=CC(=O)NCCCC1CCN(c2ccnc(N3CC[C@H]4[C@@H]3CCCN4c3cccc(F)c3)c2)CC1` [I-712] belongs less than 10 µM.
As to `NC(=O)C[C@H](NC(=O)c1nc(N)sc1-c1ccccc1F)c1cccc(Cl)c1` [I-565], the Kd fell in the range of 100 to 200 µM.
As to `COCCOCC[C@H]1CCCN(c2ccnc(N3CC[C@H]4[C@@H]3CCCN4c3cccc(F)c3)c2)C1` [I-715], the Kd is less than 10 µM.
In the case of `NCc1cccc(N2CCC[C@@H](Nc3cc(N4CCOCC4)ccn3)C2)c1` [I-866], the Kd was more than 200 µM.
As to `c1cc(N2CCC[C@@H](Nc3nccc(N4CCOCC4)n3)C2)c2ccncc2c1` [I-55], the equilibrium dissociation constant (Kd) lay within 100 to 200 µM.
With `O=C(O)CCN(c1cc(N2CCOCC2)ccn1)[C@@H]1CCCN(c2cccc(F)c2)C1` [I-288], the Kd was more than 200 µM.
On to `Oc1ccccc1N1CCC[C@@H](Nc2cc(N3CCOCC3)ncn2)C1` [I-16], for which the Kd is more than 200 µM.
For the molecule `NCCCCCCCCCCCCCCC1CCN(c2ccnc(N3CC[C@@H]4[C@H]3CCCN4c3cccc(F)c3)c2)CC1` [I-725], the Kd was in the range of 10 to 100 µM.
The same measure for `Fc1cccc([C@@H]2CCC[C@@H](Nc3cc(N4CCOCC4)ncn3)C2)c1` [I-183]: more than 200 µM; for `Fc1cccc(N2CCC[C@@H](Nc3cc(N4C[C@@H]5C[C@H]4CO5)ncn3)C2)c1` [I-312]: more than 200 µM; for `Fc1cccc(N2CCC[C@H]3[C@@H]2CCN3c2cc(N3CCOCC3)ccn2)c1` [I-540]: more than 200 µM.
To `NC(=O)C[C@H](NC(=O)c1cn[nH]c1Cc1ccccc1)c1cccc(Cl)c1` [I-543] belongs less than 10 µM; to `Cn1cncc1N1CCC[C@@H](Nc2cc(N3CCOCC3)ccn2)C1` [I-773], 10 to 100 µM; to `COCCOCCOCC[C@H]1CN(c2cc(N3CCCCC3)ccn2)[C@@H]2CCCN(c3cccc(F)c3)[C@H]12` [I-951], less than 10 µM.
For the molecule `COC(=O)c1nc(N2CCC[C@@H](Nc3cc(N4CCOCC4)ccn3)C2)ccc1C` [I-781], the dissociation constant Kd was in the range of 10 to 100 µM.
To `NC[C@@H]1CCN(c2cccc(F)c2)C[C@H]1Nc1cc(N2CCCCC2)ccn1` [I-1044] belongs 10 to 100 µM.
The same measure for `Fc1cccc(N2CCC[C@@H](n3cnc4c(N5CCOCC5)ncnc43)C2)c1` [I-51]: more than 200 µM.
Regarding `Cc1ccc(CCCOCCOCCOCCOCCOCCNC(=O)C[C@@H]2N=C(c3ccc(Cl)cc3)c3c(sc(C)c3C)-n3c(C)nnc32)c(F)c1-c1c(C(=O)N[C@@H](CC(N)=O)c2cccc(Cl)c2)c[nH]c1C#N` [I-1052], the Kd fell in the range of 10 to 100 µM.
The same measure for `Cc1c(F)ccc(F)c1-c1[nH]ncc1C(=O)N[C@@H](CC(=O)N1CC(O)C1)c1cccc(Cl)c1` [I-877]: less than 10 µM; for `Cc1cccc([C@H](CC(N)=O)NC(=O)c2cn[nH]c2-c2ccccc2F)n1` [I-143]: more than 200 µM.
The same measure for `CCNC(=O)C[C@H](NC(=O)c1cn[nH]c1-c1ccccc1F)c1cccc(Cl)c1` [I-83]: 10 to 100 µM.
On to `NC(=O)C[C@H](NC(=O)c1cn[nH]c1-c1cccc(C(N)=O)c1)c1cccc(Cl)c1` [I-350], for which the Kd was 10 to 100 µM.
To `c1cc2ccc(N3CCC[C@@H](Nc4nccc(N5CCOCC5)n4)C3)cc2cn1` [I-57] belongs 10 to 100 µM; to `C=CC(=O)NCCCN1CCN(c2ccnc(N[C@@H]3CCCN(c4cccc(F)c4)C3)c2)CC1` [I-621], 100 to 200 µM; to `C[C@H]1CCCN(c2ccnc(N[C@@H]3CCCN(c4cccc(F)c4)C3)c2)C1` [I-570], 10 to 100 µM.
In the case of `NC(=O)C[C@H](NC(=O)c1c[nH]nc1-c1ccccn1)c1cccc(Cl)c1` [I-335], the Kd is 10 to 100 µM.
